Reference: article PMC8325119, “A Novel Class of Functionalized Synthetic Fluoroquinolones with Dual Antiproliferative - Antimicrobial Capacities” (Asian Pacific Journal of Cancer Prevention : APJCP, 2021)
“And” between values parts separate entries of the source, which are not always exact repeats. Equal entries are not always repeated. Where two headings read alike, the source gives them in different places.

Experiments:
[1] = test system: K562 cell line; experiment: SRB cytotoxicity assay, K562 leukaemia cell line; conditions: Homo sapiens, K562, 72 h
Method: (§1) All reagents and chemicals of analytical grade were obtained from Sigma (Dorset, UK); unless stated otherwise. All chemicals, reagents and solvents (of analytical grade) were used directly without further purification. MCF7 cell line ATCC® HTB-22™, T47D cell line ATCC® HTB-133™, K562 cell line ATCC® CCL-243™, Panc1 cell line ATCC® CRL-1469™. A375.S2 cell line ATCC® CRL-1872™, A549 cell line ATCC® CCL-185™, HELA cell line ATCC® CCL-2™ were cultured in Dulbecco’s modified eagle’s medium (DMEM). (DMEM) containing foetal bovine serum (FBS) (Bio Whittaker, Verviers, Belgium), 4-(2-hydroxyethyl)-1-piperazine ethane sulfonic acid (HEPES) Buffer, L-glutamine, gentamicin, penicillin, and streptomycin sulphate (Sigma, St. Luis, MO, USA), trypsin, trypan blue, Ciprofloxacin HCl from Aarti drugs Ltd/India, was a kind gift from Pharma International Company- Amman; Fluconazole from Neopharma, United Arab Emirates, a kind gift from Pharmaceutical Research Unit, Amman; Trypon soya agar (TSA), trypon soya broth (TSB), sabouraud dextrose agar (SDA) were obtained from Liofilchem (Italy) or Oxoid LTD (Basingstoke, England), they were reconstituted and sterilized by autoclave at 121 °C for 15 min.
(§2) The cytotoxicity measurements were determined using Sulforhodamine B (SRB) colorimetric assay for cytotoxicity screening. The mechanism of reduction of cell viability was adopted as described previously (Arabiyat et al., 2016a,b; 2017; Alabsi et al., 2018; Jumah, 2018; AlShahrabi et al., 2020). Human periodontal ligament fibroblasts (PDL) are a primary normal cell culture for verification of selective cytotoxicity. […] Selectivity ratio as indicative factor of the safety of compounds was calculated by dividing IC50 of tested compound on normal fibroblasts by IC50 of the same compound on specific pathological cell line (Hoffman et al., 2011).

[2] = test system: MCF7 cell line; experiment: SRB cytotoxicity assay, MCF7 breast cancer cell line; conditions: Homo sapiens, MCF7, 72 h, read-out: Cytotoxicity IC50 value, MCF7 cell line
Method: as §1, §2

[3] = test system: A549 cell line; experiment: SRB cytotoxicity assay, A549 lung cancer cell line; conditions: Homo sapiens, A549, 72 h, read-out: Cytotoxicity IC50 value, A549 cell line
Method: as §1, §2

[4] = test system: HELA cell line; experiment: SRB cytotoxicity assay, HELA cervical cancer cell line; conditions: Homo sapiens, HeLa, 72 h
Method: as §1, §2

[5] = test system: A375.S2 cell line; experiment: SRB cytotoxicity assay, A375.S2 melanoma cell line; conditions: Homo sapiens, A375-S2, 72 h, read-out: Cytotoxicity IC50 value, A375.S2 cell line
Method: as §1, §2

[6] = test system: T47D cell line; experiment: cells; conditions: Homo sapiens, T47D, 72 h, read-out: Cytotoxicity IC50 value, T47D cell line
Method: as §1, §2

[7] = test system: PDL Fibroblasts; experiment: SRB cytotoxicity on normal periodontal ligament fibroblasts, selective cytotoxicity; format: cell-based, Human; conditions: for IC50: Homo sapiens, Fibroblast, normal fibroblasts, SRB, 72 h, mean ± SD; for Selectivity index SI (K562): IC50 on PDL fibroblasts divided by IC50 on K562; for Selectivity index SI (HELA): IC50 on PDL fibroblasts divided by IC50 on HELA
Method: as §2

[8] = test system: PANC 1 cell line; experiment: SRB cytotoxicity assay, PANC 1 pancreatic cancer cell line; conditions: Homo sapiens, PANC-1, 72 h, read-out: Cytotoxicity IC50 value, PANC 1 cell line
Method: as §1, §2

[9] = read-out: Cytotoxicity IC50 value, K562 cell line, SRB, 72 h, 0.1-200 μg/mL range, mean ± SD, value in brackets
[10] = read-out: Cytotoxicity IC50 value, K562 cell line, SRB, 72 h, 0.1-200 μg/mL range, mean ± SD, NI = lack of cytotoxicity in range
[11] = read-out: Cytotoxicity IC50 value, HELA cell line, SRB, 72 h, 0.1-200 μg/mL range, mean ± SD, value in brackets
[12] = read-out: Cytotoxicity IC50 value, HELA cell line, SRB, 72 h, 0.1-200 μg/mL range, mean ± SD, NI = lack of cytotoxicity in range
[13] = 0.1-200 μg/mL range, NI = lack of cytotoxicity in range

SMILES | IC50 [1, 9] | IC50 [1, 10] | IC50 [2] | IC50 [3] | IC50 [4, 11] | IC50 [4, 12] | IC50 [5] | IC50 [6] | IC50 [7, 13] | IC50 ([7]; value in brackets) | Selectivity index SI (K562) [7] | IC50 [8] | Selectivity index SI (A562) ([7]; IC50 on PDL fibroblasts divided by IC50 on the cell line printed as A562) | Selectivity index SI (HELA) [7] | Selectivity index SI (PANC 1) ([7]; IC50 on PDL fibroblasts divided by IC50 on PANC 1)
CCCCc1ccc(Nc2c(F)cc3c(=O)c(C(=O)O)cn(C4CC4)c3c2[N+](=O)[O-])cc1 [3e, 1-cyclopropyl-6-fluoro-7-(4-butyl-phenylamino)-8-nitro-4-oxo-1,4-dihydro-quinoline-3-carboxylic acid] | 0.71 µg/mL | 1.62 ± 0.16 µM | 428 µM and 188 µg/mL | 64.2 µM and 28.2 µg/mL | 498 µg/mL | 1130 ± 65.6 µM | 144 µM and 63.5 µg/mL | 406 µM and 178 µg/mL | 711 ± 44.9 µM | 313 µg/mL | 439.01 | 12.2 µM and 5.38 µg/mL | – | – | –
COc1ccc(-n2nnc3c4c(cc(F)c32)c(=O)c(C(=O)O)cn4C2CC2)cc1 [5c, 9-cyclopropyl-4-fluoro-3-(4-methoxy-phenyl)-6-oxo-6,9-dihydro-3H-[1,2, and 3] triazolo [4,5-h] quinoline-7-carboxylic acid] | 97.4 µg/mL | 248 ± 44.6 µM | > 200 µg/mL | 427 µM and 168 µg/mL | 179 µg/mL | 454 ± 19.1 µM | 453 µM and 178 µg/mL | 398 µM and 156 µg/mL | 496 ± 52.5 µM | 195 µg/mL | 2.00 | > 200 µg/mL | – | – | –
COc1ccc(Nc2c(F)cc3c(=O)c(C(=O)O)cn(C4CC4)c3c2[N+](=O)[O-])c(OC)c1 [3g, 1-cyclopropyl-7-(2,4-dimethoxy-phenylamino)-6-fluoro-8-nitro-4-oxo-1,4-dihydro-quinoline-3-carboxylic acid] | – | > 200 µg/mL | > 200 µg/mL | > 200 µg/mL | – | > 200 µg/mL | > 200 µg/mL | > 200 µg/mL | > 200 µg/mL | – | – | > 200 µg/mL | – | – | –
CCc1ccc(Nc2c(F)cc3c(=O)c(C(=O)O)cn(C4CC4)c3c2N)cc1 [4d, 8-Amino-1-cyclopropyl-6-fluoro-7-(4-ethyl-phenylamino)-4-oxo-1,4-dihydro-quinoline-3-carboxylic acid] | 15.9 µg/mL | 41.8 ± 4.98 µM | 21.3 µM and 8.14 µg/mL | 20.2 µM and 7.72 µg/mL | 51.7 µg/mL | 136 ± 4.58 µM | 47 µM and 17.9 µg/mL | 53.7 µM and 20.5 µg/mL | 50.4 ± 4.28 µM | 19.2 µg/mL | – | 65.3 µM and 24.9 µg/mL | 2.49 | – | –
COc1ccc(-n2nnc3c4c(cc(F)c32)c(=O)c(C(=O)O)cn4C2CC2)c(OC)c1 [5g, 9-cyclopropyl-3-(2,4-dimethoxy-phenyl)-4-fluoro-6-oxo-6,9-dihydro-3H-[1,2,3] triazolo[4,5-h]quinoline-7-carboxylic acid] | 24.2 µg/mL | 56 ± 8.04 µM | 143 µM and 61.9 µg/mL | 474 µM and 205 µg/mL | 71.8 µg/mL | 166 ± 26 µM | 272 µM and 118 µg/mL | 237 µM and 102 µg/mL | 237 ± 13.5 µM | 102 µg/mL | 4.23 | > 200 µg/mL | – | – | –
O=C(O)c1cn(C2CC2)c2c(cc(F)c3c2nnn3C2CCCCC2)c1=O [9a, 3-cyclohexyl-9-cyclopropyl-4-fluoro-6-oxo-6,9-dihydro-3H-[1,2, and 3] triazolo [4,5-h] quinoline-7-carboxylic acid] | – | > 200 µg/mL | 133 µM and 49.2 µg/mL | 223 µM and 82.3 µg/mL | 27.6 µg/mL | 74.8 ± 1.67 µM | 215 µM and 79.6 µg/mL | 299 µM and 110 µg/mL | 252 ± 11.6 µM | 93.1 µg/mL | – | 162 µM and 60 µg/mL | – | 3.36 | –
COc1ccccc1Nc1c(F)cc2c(=O)c(C(=O)O)cn(C3CC3)c2c1N [4a, 8-amino-1-cyclopropyl-6-fluoro-7-(2-methoxy-phenylamino)-4-oxo-1,4-dihydro-quinoline-3-carboxylic acid] | 16.9 µg/mL | 44 ± 3.88 µM | > 200 µg/mL | 153 µM and 58.7 µg/mL | 15.5 µg/mL | 40.4 ± 6.03 µM | 72.3 µM and 27.8 µg/mL | 95.8 µM and 36.8 µg/mL | 140 ± 10.5 µM | 53.8 µg/mL | – | 113 µM and 43.4 µg/mL | – | 3.46 | –
CCCCCCc1ccc(Nc2c(F)cc3c(=O)c(C(=O)O)cn(C4CC4)c3c2N)cc1 [4f, 8-Amino-1-cyclopropyl-6-fluoro-7-(4-hexyl-phenylamino)-4-oxo-1,4-dihydro-quinoline-3-carboxylic acid] | 30.4 µg/mL | 69.4 ± 6.64 µM | 300 nM and 0.13 µg/mL | 204 µM and 89.5 µg/mL | 13.4 µg/mL | 30.7 ± 3.79 µM | 244 µM and 107 µg/mL | 308 µM and 135 µg/mL | 352 ± 7.36 µM | 154 µg/mL | – | 110 nM and 0.05 µg/mL | – | – | 3199.45
COc1cccc(Nc2c(F)cc3c(=O)c(C(=O)O)cn(C4CC4)c3c2[N+](=O)[O-])c1 [3b, 1-cyclopropyl-6-fluoro-7-(3-methoxy-phenylamino)-8-nitro-4-oxo-1,4-dihydro-quinoline-3-carboxylic acid] | – | > 200 µg/mL | > 200 µg/mL | > 200 µg/mL | – | > 200 µg/mL | > 200 µg/mL | > 200 µg/mL | > 200 µg/mL | – | – | > 200 µg/mL | – | – | –
CCCCCCc1ccc(-n2nnc3c4c(cc(F)c32)c(=O)c(C(=O)O)cn4C2CC2)cc1 [5f, 9-cyclopropyl-4-fluoro-3-(4-hexyl-phenyl)-6-oxo-6,9-dihydro-3H-[1,2,3] triazolo[4,5-h]quinoline-7-carboxylic acid] | 14.1 µg/mL | 31.5 ± 2.92 µM | 181 µM and 81.1 µg/mL | 362 µM and 162 µg/mL | 1.61 µg/mL | 3.59 ± 0.05 µM | 508 µM and 227 µg/mL | 232 µM and 104 µg/mL | 474 ± 33.5 µM | 212 µg/mL | – | 119 µM and 53.4 µg/mL | – | 132.15 | –
O=C(O)c1cn(C2CC2)c2c([N+](=O)[O-])c(NC3CCCCC3)c(F)cc2c1=O [7a, 7-cyclohexylamino-1-cyclopropyl-6-fluoro-8-nitro-4-oxo-1,4-dihydro-quinoline-3-carboxylic acid] | 11 µg/mL | 28.2 ± 2.04 µM | > 200 µg/mL | 240 µM and 93.6 µg/mL | 0.16 µg/mL | 0.4 ± 0.05 µM | 246 µM and 102 µg/mL | 51.2 µM and 19.9 µg/mL | 29.9 ± 3.56 µM | 11.6 µg/mL | – | 13.2 µM and 5.15 µg/mL | – | 74.66 | –
CCn1cc(C(=O)O)c(=O)c2cc(F)c(Nc3cccc(OC)c3)c(N)c21 [12b, 8-amino-1-ethyl-6-fluoro-7-(3-methoxy-phenylamino)-4-oxo-1,4-dihydro-quinoline-3-carboxylic acid] | 13.2 µg/mL | 35.4 ± 3.8 µM | 492 µM and 183 µg/mL | 163 µM and 60.4 µg/mL | 83.6 µg/mL | 225 ± 34 µM | 112 µM and 41.7 µg/mL | 169 µM and 62.7 µg/mL | 150 ± 6.73 µM | 55.5 µg/mL | 4.22 | 35.4 µM and 13.2 µg/mL | – | – | –
